In one assay the test system is Pannonia vine variety. As to the kind of experiment: Berry yield and sugar content of vine, Pannonia (Example 33). It counts as in vivo. The settings on record: for Berry yield: 3 x 2 kg/ha, control 216; for Sugar content: control 13.0; for Sugar yield: control 28.08. As to the method:
(§1) Vine stands were sprayed with the compositions according to the invention to examine their effects exerted on the berry yield and sugar content. The compositions, diluted with water, were sprayed three times onto the plants. The first treatment was performed prior to flowering, the second one three weeks later, and the third one six weeks after the first one. The dose applied was 2 kg/ha in each of the treatments.
(§2) Comparative tests were also performed with commonly used growth regulating compositions, i.e. CCC (chlorocholine chloride), Ethrel (or Etefon; 2-chloroethylphosphonic acid) and Nevirol (N-phenyl-phthalaiminic acid). The results were compared to those observed with the untreated controls.
(§3) Two vine varieties, Pannonia and Egri leanyka, were involved in the tests.

Assay [1] relates to Egri leanyka vine variety. Briefly: Berry yield and sugar content of vine, Egri leanyka (Example 33). Particulars: for Berry yield: 3 x 2 kg/ha, control 151.15; for Sugar content: control 16.7; for Sugar yield: control 18.93. The format is in vivo. As to the method:
as §1, §2, §3

The subject of the next assay is leaves of Pinto beans. Briefly: Stimulation of carbon dioxide fixation, Pinto beans (Example 21). Particulars: zeatin 20, kinetin/benzyladenine 30, others 200 ppm. Here is the method:
The tests were performed on leaves of Pinto beans. The leaf segments were treated with an endogeneous cytokinin (zeatin), synthetic cytokinins (kinetin, benzyladenine) or with the compositions according to the invention, respectively, by floating the leaf segments on the solution of the test substance for 18 hours, thereafter the leaf segments were exposed to labelled carbon dioxide (activity: 100 μCi/5000 ml of ^14 CO2) for 0.5 hours.

The next assay has as its system Soybean. Briefly: Total and protein nitrogen content of soybean (Example 39). It counts as in vivo. The settings on record: for Protein nitrogen content: control 1.9; for Total nitrogen content: control 2.6; for Protein nitrogen content, increase / Total nitrogen content, increase: in vivo. An excerpt:
The effects of 1,4-dihydroxyphthalazine and salts thereof exerted on the total nitrogen content and protein nitrogen content of soybean were examined as described in Example 27. The plants were sprayed with the compositions according to the invention at the beginning of the flowering of the apical cluster.

The next assay concerns Tobacco callus. As to the kind of experiment: Growth of tobacco callus vs kinetin (Example 14). The format is cell-based. The settings on record: 2 ppm active agent. Here is the method: An untreated culture medium served as control. Tobacco callus was grown on the treated and untreated culture media (incubation period: 3 weeks), and the daily growth, the increase in cell number and the frequency of mitosis were measured according to the method of Skoog.
The test described in Example 13 was repeated so that a culture medium containing 1 ppm of kinetin was used as control, and the compositions according to the invention were applied in amounts corresponding to 2 ppm of active agent.

The source of these data is US4620871A (priority 1980, dated 1986).

The structures appear in SMILES notation.

Regarding `C[N+](C)(C)CCCl.[Cl-]` [CCC, 2-chloroethyltrimethyl-ammonium chloride], in the assay on Pannonia vine variety, the “Sugar content, increase” value was found to be 23.0%; the Berry yield is recorded as 175 q/ha; the Sugar content is given as 16.0%; the Sugar yield stood at 28.0 q/ha. Moreover, in assay [1], the Berry yield was determined as 144.61 q/ha, the Sugar content is listed as 17.0% and the Sugar yield turned out to be 18.44 q/ha.

As for `O=P(O)(O)CCCl` [Ethrel, 2-chloroethylphosphonic acid], in the assay with Pannonia vine variety, the “Sugar content, increase” value worked out at 7.5%; the Berry yield turned out to be 194 q/ha; the Sugar content is reported as 14.0%; the Sugar yield is on record as 27.2 q/ha. In addition, in assay [1], the “Berry yield, increase” value is recorded as 8.9%; the “Sugar yield, increase” value was 2.3%; the Berry yield stood at 164.61 q/ha; the Sugar content is reported as 15.7%. The Sugar yield in assay [1] came to 19.38 q/ha.

`N=C(N)N.Oc1nnc(O)c2ccccc12` [1,4-Dihydroxy-phthalazine monoguanidine salt]: in the assay with leaves of Pinto beans (A = in the light, control 2.14), the “Radioactivity A” value came to 3.75 dpm/200 mg fresh weight. Further, the “Radioactivity B” value in the assay on leaves of Pinto beans (B = in the dark, control 0.18) is on record as 0.28 dpm/200 mg fresh weight. The “Radioactivity C” value in the assay on leaves of Pinto beans (C = photosynthetic, control 2.32) turned out to be 3.47 dpm/200 mg fresh weight. In addition, the Stimulation in the assay with leaves of Pinto beans stood at 50.7%.

Consider `NN.Oc1nnc(O)c2ccccc12` [1,4-Dihydroxyphthalazine hydrazine salt], for which, in the assay on Soybean, the Protein nitrogen content was 3.1 % of dry substance; the Total nitrogen content was 3.7 % of dry substance; the “Protein nitrogen content, increase” value is listed as 63.2%; the “Total nitrogen content, increase” value turned out to be 42.4%.

As for `NN.NN.Oc1nnc(O)c2ccccc12` [1,4-Dihydroxyphthalazine dihydrazine salt], in the assay with Soybean, the Protein nitrogen content was 3.6 % of dry substance; the Total nitrogen content was 3.9 % of dry substance; the “Protein nitrogen content, increase” value stood at 89.5%; the “Total nitrogen content, increase” value was 50.0%.

As to `CCCn1cnc2ccccc21` [N--(n-Propyl)-benzimidazolium chloride], in the assay with Tobacco callus (kinetin 1 ppm), the “Dry weight of the callus” value is listed as 194.09 mg and the Speed of growth was determined as 116.89. The activity at 2 ppm with Tobacco callus (Nicotiana tabacum, 504 h, kinetin 1 ppm = 100, read-out: Speed of growth, Index %) came to 119%.

Turning to `O=C(O)c1ccccc1C(=O)Nc1ccccc1` [Nevirol, N-phenyl-phthalaiminic acid], in the assay with Pannonia vine variety, the “Sugar content, increase” value came out at 18.4%; the “Sugar yield, increase” value worked out at 30%; the Berry yield is given as 238 q/ha; the Sugar content was determined as 15.4%. In the assay with Pannonia vine variety, this molecule yielded a Sugar yield of 36.52 q/ha. Besides, in assay [1], the “Berry yield, increase” value worked out at 11.9%; the “Sugar yield, increase” value is 9.9%; the Berry yield is reported as 169.22 q/ha; the Sugar content came to 16.4%. The molecule further registered a Sugar yield in assay [1] of 20.81 q/ha.
